O=C(NCCO[N+](=O)[O-])c1cccnc1
solubility (mole fraction)
Settings | 278.15 K | 283.15 K | 288.15 K | 293.15 K | 298.15 K | 303.15 K | 308.15 K | 313.15 K | 318.15 K | 323.15 K
in DMF | 0.0135 | 0.0146 | 0.0156 | 0.0168 | 0.0179 | 0.0191 | 0.0202 | 0.0213 | 0.0225 | 0.024
in ethanol | 0.00153 | 0.00167 | 0.00181 | 0.00195 | 0.00208 | 0.00222 | 0.00236 | 0.0025 | 0.00264 | 0.00281
in isopropanol | 0.0011 | 0.00119 | 0.00129 | 0.00139 | 0.00149 | 0.00159 | 0.00169 | 0.00178 | 0.00188 | 0.002
in methanol | 0.0017 | 0.00182 | 0.00195 | 0.00211 | 0.00226 | 0.0024 | 0.00256 | 0.00271 | 0.00286 | 0.00306
in water | 0.000204 | 0.000222 | 0.00024 | 0.000257 | 0.000275 | 0.000291 | 0.000307 | 0.000325 | 0.000346 | 0.000367

— BigSolDB 2.1
